Data as given in ChEMBL document CHEMBL1130844, “Synthesis and NK1 receptor antagonistic activity of (+/-)-1-acyl-3-(3,4- dichlorophenyl)-3-[2-(spiro-substituted piperidin-1'-yl)ethyl]piperidines” (Bioorg Med Chem Lett, 1998).

Key:
Substance-P receptor = Substance-P receptor (Cavia porcellus, UniProt P30547); test: Neurokinin (NK1) receptor antagonistic activity was evaluated.; assay type: functional
Cavia porcellus = test: Inhibitory activity of substance P-induced bronchoconstriction in guinea pigs upon intravenous administration was evaluated.; assay type: functional; conditions: read-out: ID50 (the source's name)

Sequence of Substance-P receptor (P30547 whole entry): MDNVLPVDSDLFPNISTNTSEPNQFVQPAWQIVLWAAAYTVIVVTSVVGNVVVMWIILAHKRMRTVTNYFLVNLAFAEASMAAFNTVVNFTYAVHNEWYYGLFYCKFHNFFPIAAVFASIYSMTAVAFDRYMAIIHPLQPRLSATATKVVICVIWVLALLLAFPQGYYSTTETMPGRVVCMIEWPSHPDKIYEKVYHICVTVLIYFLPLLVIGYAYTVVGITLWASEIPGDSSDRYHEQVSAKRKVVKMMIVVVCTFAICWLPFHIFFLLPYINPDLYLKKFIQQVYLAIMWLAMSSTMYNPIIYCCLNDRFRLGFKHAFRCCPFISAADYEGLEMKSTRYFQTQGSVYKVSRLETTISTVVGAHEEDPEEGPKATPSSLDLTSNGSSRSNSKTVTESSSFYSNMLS

Structure (SMILES)	IC50 (Substance-P receptor)	ED50 (Cavia porcellus)
CC(C)Oc1cccc(CC(=O)N2CCCC(CCN3CCC4(CC3)OCc3ccccc34)(c3ccc(Cl)c(Cl)c3)C2)c1 (configuration not stated)	16 nM	–
CC(C)Oc1cccc(CC(=O)N2CCCC(CCN3C4CCC3CC3(C4)OCc4ccccc43)(c3ccc(Cl)c(Cl)c3)C2)c1 (configuration not stated)	105 nM	–
CC(C)Oc1cccc(CC(=O)N2CCCC(CCN3CCC4(CC3)NC(=O)Cc3ccccc34)(c3ccc(Cl)c(Cl)c3)C2)c1 (configuration not stated)	54 nM	–
CC(C)Oc1cccc(CC(=O)N2CCCC(CC[N+]3(Cc4ccccc4)CCC4(CC3)NCCc3ccccc34)(c3ccc(Cl)c(Cl)c3)C2)c1 (configuration not stated)	16 nM	–
CC(C)Oc1cccc(CC(=O)N2CCCC(CC[N+]3(C)CCC4(CC3)NCCc3ccccc34)(c3ccc(Cl)c(Cl)c3)C2)c1.[I-] (configuration not stated)	2 nM	0.049 mg/kg
CC(C)Oc1cccc(CC(=O)N2CCCC(CC[N+]3(C)CCC4(CC3)c3ccccc3C[S+]4[O-])(c3ccc(Cl)c(Cl)c3)C2)c1 (configuration not stated)	6.3 nM	–
CC(C)Oc1cccc(CC(=O)N2CCCC(CCN3CCC4(CC3)c3ccccc3C[S+]4[O-])(c3ccc(Cl)c(Cl)c3)C2)c1 (configuration not stated)	18 nM	–
CC(C)Oc1cccc(CC(=O)N2CCCC(CCN3CCC4(CC3)NCCc3ccccc34)(c3ccc(Cl)c(Cl)c3)C2)c1 (configuration not stated)	31 nM	–
CN(CC(CCN1CCC2(CC1)OCc1ccccc12)c1ccc(Cl)c(Cl)c1)C(=O)c1ccccc1 (configuration not stated)	710 nM	–
CN(CC(CCN1CCC2(CC1)NCCc1ccccc12)c1ccc(Cl)c(Cl)c1)C(=O)c1ccccc1 (configuration not stated)	58 nM	–
CC[N+]1(CCC2(c3ccc(Cl)c(Cl)c3)CCCN(C(=O)Cc3cccc(OC(C)C)c3)C2)CCC2(CC1)NCCc1ccccc12 (configuration not stated)	4.8 nM	–
CC(C)Oc1cccc(CC(=O)N2CCCC(CC[N+]34CCC(c5ccccc5)(CC3)CC4)(c3ccc(Cl)c(Cl)c3)C2)c1.[Cl-] (racemic)	0.31 nM	0.019 mg/kg
CC(C)Oc1cccc(CC(=O)N2CCCC(CC[N+]3(C)CCC4(CC3)NC(=O)Cc3ccccc34)(c3ccc(Cl)c(Cl)c3)C2)c1.[I-] (stereo in doubt; 5ba)	1.9 nM	0.024 mg/kg
CC(C)Oc1cccc(CC(=O)N2CCCC(CC[N+]3(C)CCC4(CC3)NC(=O)Cc3ccccc34)(c3ccc(Cl)c(Cl)c3)C2)c1 (stereo in doubt; 5bb)	35 nM	–
